Measured values as given in article PMC6273715, “Synthesis and Evaluation of New Benzodioxole- Based Thiosemicarbazone Derivatives as Potential Antitumor Agents” (Molecules, 2016).
Like-named read-outs stand apart in the source and are kept apart here.

Legend:
[1] = test system: ribonucleotide reductase; parameters: method as in PMID 21425997, PMID 22655252, PMID 22963201, PMID 19601577, PMID 26335599; conditions: both enzyme and cell assays; cited from earlier work
[2] = test system: C6 rat glioma cells; assay: MTT cytotoxicity assay, C6; assay type: cell-based; conditions: MTT, 24 h, read-out: IC50 C6 Cell Line
Protocol: (§1) C6 Rat glioma and NIH/3T3 mouse embryonic fibroblast cells were incubated in Dulbecco’s Modified Eagle’s Medium (DMEM) (Sigma, Deisenhofen, Germany) supplemented with 10% fetal calf serum (Gibco, Paisley, UK). A549 Human lung adenocarcinoma cells were incubated in 90% RPMI supplemented with 10% fetal bovine serum (Gibco). […] Exponentially growing cells were plated at 2 × 10^4 cells/mL into 96-well microtiter tissue culture plates (Nunc, Roskilde, Denmark) and incubated for 24 h before the addition of the drugs (the optimum cell number for cytotoxicity assays was determined in preliminary experiments).
(§2) The level of cellular 3-(4,5-dimethylthiazol-2-yl)-2,5-diphenyltetrazolium bromide (MTT) (Sigma) reduction was quantified as previously described in the literature with small modifications. […] At the end of this period, MTT was added to a final concentration of 0.5 mg/mL and the cells were incubated for 4 h at 37 °C. After the medium was removed, the formazan crystals formed by MTT metabolism were solubilized by addition of 200 µL DMSO to each well and absorbance was read at 540 nm with a microtiter plate spectrophotometer (Bio-Tek Plate Reader, Winooski, VT, USA). Every concentration was repeated in three wells.

[3] = test system: A549 cells; assay: Annexin V-PI flow cytometry of apoptosis, A549; assay type: cell-based; conditions: IC50 dose, 24 h
Protocol: (§3) Annexin V staining protocol was applied according to the manufacturer’s instructions (BD Pharmingen). The cells were then briefly washed with cold phosphate buffer saline (PBS) and suspended in a binding buffer at a concentration of 1 × 10^6 cells/mL. Then, 100 µL of this solution containing 1 × 10^5 cells was transferred to a 5 mL test tube. After 5 µL of Annexin-V and PI was added, the cells were incubated for 15 min at room temperature in the dark. Then 400 µL of 1x Binding Buffer was added to each tube and the cells were processed for data acquisition, and analyzed on a Becton–Dickinson FACS Aria using […] Version 6.1.1. Software (BD Biosciences, San Jose, CA, USA).

[4] = test system: C6 cells; assay: Annexin V-PI flow cytometry of apoptosis, C6; assay type: cell-based; conditions: IC50 dose, 24 h
Protocol: as §3

[5] = test system: A549 cells; assay: DNA synthesis inhibition (BrdU ELISA), A549; assay type: cell-based, human; conditions: A549, compound at its IC50, 24 h
Protocol: (§4) The immunostaining procedure was carried out with specific anti-BrdU antibodies in the S-phase of the cell cycle. DNA synthesis inhibitory effects of all compounds were evaluated for 24 h. A549 and C6 cell lines were incubated with three different concentrations of the compounds that were determined according to their IC50 values. Cisplatin was used as a positive control.
(§5) Analysis of DNA synthesis was measured by a Cell Proliferation ELISA, BrdU (colorimetric) kit (Roche, Mannheim, Germany). This immunostaining procedure is based on measuring the incorporation of bromodeoxyuridine (BrdU) into nuclear DNA in place of thymidine during the S-phase of the cell cycle using specific anti-BrdU antibodies. […] Firstly cells were seeded into 96 well flat-bottomed microtiter plates at a density of 2 × 10^3. […] Microtiter plates were incubated at 37 °C in a 5% CO2/95% air humidified atmosphere for 24 h. Cells were labeled with 10 µL BrdU solution for 2 h and then fixed. Anti-BrdU-POD (100 µL) was added and incubated for 90 min. Finally, wells were washed with BPS and cells were incubated with substrate. Absorbance of the samples was measured with an ELX808-IU Bio-Tek apparatus at 492 nm. All experiments were repeated two times. For each compound dose, dublicate wells were used.

[6] = target: AChE (Electrophorus electricus, UniProt O42275); assay: biochemical; assay type: biochemical; conditions: for IC50: tested at 5–80 μg/mL
[7] = test system: NIH/3T3 mouse embryonic fibroblast cells; assay: MTT cytotoxicity assay, NIH/3T3; assay type: cell-based; conditions: NIH3T3, 24 h, read-out: IC50 NIH/3T3 Cell Line
Protocol: C6 Rat glioma and NIH/3T3 mouse embryonic fibroblast cells were incubated in Dulbecco’s Modified Eagle’s Medium (DMEM) (Sigma, Deisenhofen, Germany) supplemented with 10% fetal calf serum (Gibco, Paisley, UK). A549 Human lung adenocarcinoma cells were incubated in 90% RPMI supplemented with 10% fetal bovine serum (Gibco). All media were supplemented with 100 IU/mL penicillin-streptomycin (Gibco) and cells were incubated at 37 °C in a humidified atmosphere of 95% air and 5% CO2. Exponentially growing cells were plated at 2 × 10^4 cells/mL into 96-well microtiter tissue culture plates (Nunc, Roskilde, Denmark) and incubated for 24 h before the addition of the drugs (the optimum cell number for cytotoxicity assays was determined in preliminary experiments). The stock solutions of the compounds were prepared in dimethyl sulfoxide (DMSO; Sigma Aldrich, Poole, UK) and further dilutions were made with fresh culture medium (the concentration of DMSO in the final culture medium was <0.1% which had no effect on the cell viability).
as §2

[8] = test system: A549 human lung adenocarcinoma cells; assay: MTT cytotoxicity assay, A549; assay type: cell-based; conditions: MTT, 24 h, read-out: IC50 A549 Cell Line
Protocol: as §1, §2

[9] = target: BuChE (Homo sapiens, UniProt P06276); assay: BuChE inhibition, modified Ellman's method; assay type: biochemical; conditions: for IC50: tested at 5–80 μg/mL
[10] = test system: C6 cells; assay: Mitochondrial membrane potential (JC-1) flow cytometry, C6; assay type: cell-based, rat; conditions: IC50 dose, 24 h
Protocol: (§6) During apoptosis, several key events occur in mitochondria including the release of cytochrome c, changes in electron transport, and loss of mitochondrial transmembrane potential (ΔΨm). For this reason, ΔΨm is an important parameter of mitochondrial function in apoptosis.
(§7) The cells were seeded in six-well plates at a density of 10^5 cells/mL, and the IC50 dose of compounds 2, 5 and 10 was added to cells. The cells were incubated in 5% CO2 air-conditioned atmosphere at 37 °C. […] 5,5′,6,6′-Tetrachloro-1,1′,3,3′-tetraethylbenzimidazolylcarbocyanine iodide (JC-1) dye solution (1× assay buffer + JC-1 stock solution) was added to the cells. The stock solution was prepared by dissolving DMSO. Then the samples were incubated at a temperature of 37 °C for 10–15 min. After incubation, the cells were washed twice with an assay buffer and analyzed by BD FACS Aria Cell Sorter Software version 6.1.1 flow cytometry (BD Biosciences). The cells showing mitochondrial membrane potential disruption were determined as a percentage of all cells.

[11] = test system: A549 cells; assay: Mitochondrial membrane potential (JC-1) flow cytometry, A549; assay type: cell-based, human; conditions: IC50 dose, 24 h
Protocol: as §6, §7

[12] = test system: C6 cells; assay: DNA synthesis inhibition (BrdU ELISA), C6; assay type: cell-based, rat; conditions: C6, compound at its IC50, 24 h
Protocol: as §4, §5

[13] = test system: SIRT1; assay: Sirtuin-1 detection by ELISA in C6 glioma cells; assay type: cell-based, rat; conditions: 24 h

Sequence of AChE (O42275 24-633): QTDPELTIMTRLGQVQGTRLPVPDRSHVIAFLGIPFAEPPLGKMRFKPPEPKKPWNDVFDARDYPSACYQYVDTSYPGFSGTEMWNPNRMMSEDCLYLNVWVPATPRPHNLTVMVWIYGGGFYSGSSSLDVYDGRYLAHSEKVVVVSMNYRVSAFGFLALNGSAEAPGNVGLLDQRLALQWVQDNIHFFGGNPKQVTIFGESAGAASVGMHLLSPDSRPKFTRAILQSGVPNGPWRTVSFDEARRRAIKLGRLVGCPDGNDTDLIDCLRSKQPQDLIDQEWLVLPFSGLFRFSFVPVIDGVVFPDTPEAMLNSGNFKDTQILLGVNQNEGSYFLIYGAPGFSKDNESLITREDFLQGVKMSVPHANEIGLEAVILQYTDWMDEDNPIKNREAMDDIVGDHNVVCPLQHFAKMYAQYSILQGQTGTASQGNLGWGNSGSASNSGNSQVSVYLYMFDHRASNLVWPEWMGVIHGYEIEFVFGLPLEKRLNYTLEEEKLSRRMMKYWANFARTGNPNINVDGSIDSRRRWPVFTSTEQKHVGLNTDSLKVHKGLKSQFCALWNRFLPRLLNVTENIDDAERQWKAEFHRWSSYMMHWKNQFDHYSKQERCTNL
Sequence of BuChE (P06276 29-602): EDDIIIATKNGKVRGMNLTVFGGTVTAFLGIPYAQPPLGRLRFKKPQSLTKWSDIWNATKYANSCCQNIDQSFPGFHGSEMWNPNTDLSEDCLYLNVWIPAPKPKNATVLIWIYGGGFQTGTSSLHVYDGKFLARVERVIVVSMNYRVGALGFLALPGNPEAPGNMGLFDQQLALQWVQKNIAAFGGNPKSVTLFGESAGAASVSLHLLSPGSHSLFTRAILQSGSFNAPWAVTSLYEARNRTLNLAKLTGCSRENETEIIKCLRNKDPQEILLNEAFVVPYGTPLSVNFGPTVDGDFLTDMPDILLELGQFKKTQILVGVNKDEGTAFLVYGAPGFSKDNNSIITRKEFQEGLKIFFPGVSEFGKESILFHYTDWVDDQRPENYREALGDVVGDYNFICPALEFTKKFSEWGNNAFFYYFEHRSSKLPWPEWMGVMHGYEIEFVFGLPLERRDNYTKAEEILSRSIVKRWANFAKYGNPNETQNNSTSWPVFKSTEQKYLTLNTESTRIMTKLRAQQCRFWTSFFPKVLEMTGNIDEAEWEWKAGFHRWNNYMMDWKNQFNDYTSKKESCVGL

SMILES	IC50 ([2]; Rattus norvegicus, C6) [µM]	Early and Late Apoptotic Cells % A549 Cells [3] [%]	Viability % A549 Cells [3] [%]	Early and Late Apoptotic Cells % C6 Cells [4] [%]	Viability % C6 Cells [4] [%]	DNA synthesis inhibition percent [5] [%]	IC50 [6] [µM]	IC50 [7] [µM]	IC50 ([8]; Homo sapiens, A549) [µM]	IC50 [9] [µM]	P2 (%) mitochondrial membrane polarized cells, C6 Cells [10] [%]	P3 (%) mitochondrial membrane depolarized cells, C6 Cells [10] [%]	P2 (%) mitochondrial membrane polarized cells, A549 Cells [11] [%]	P3 (%) mitochondrial membrane depolarized cells, A549 Cells [11] [%]	DNA synthesis inhibition percent [12] [%]	other results
NC(=S)NN=Cc1ncccc1N [Triapine, 3-aminopyridine-2-carboxaldehyde thiosemicarbazone]																potency relative to hydroxyurea [1]: 1000 times
S=C(NN=Cc1ccc(-c2ccccc2)cc1)Nc1ccc2c(c1)OCO2 [Compound 5, 4-(1,3-Benzodioxole-5-yl)-1-[(biphenyl-4-yl)methylene]thiosemicarbazide]	4.33 ± 1.04	12.11	81.8	25.0	60.2	57.79	> 213	21.3 ± 5.77	10.7 ± 1.53	> 213	49.8	45.0	52.7	24.6	62.98	inhibitory activity against AChE (in words) [6]: did not show any inhibitory activity
N.N.[Cl][Pt][Cl] [Cisplatin, reference compound]		32.4		16.3		55.73					46.6	48.4	41.4	54.0	53.95	IC50 [2]: 6.83 ± 0.28 µM; IC50 [8]: 3 ± 0.88 µM; SIRT1 Concentration ([13]; IC50/2 concentration): 4.53 ± 1.37 ng/mL; SIRT1 Concentration ([13]; IC50 concentration): 3.32 ± 1.41 ng/mL
S=C(N/N=C/c1cc2c(cc1Br)OCO2)Nc1ccc2c(c1)OCO2 [Compound 10]	12.3 ± 4.93	6.2	81.2	15.8	69.6	56.38	108 ± 3.53	38.3 ± 2.08	29.7 ± 5.51	> 189	35.1	63.7	21.9	57.9	53.96	inhibition on BuChE (in words) [9]: weak inhibition
O=[N+]([O-])c1ccc(C=NNC(=S)Nc2ccc3c(c2)OCO3)cc1 [Compound 2, 4-(1,3-Benzodioxole-5-yl)-1-(4-nitrobenzylidene)thiosemicarbazide]	23.3 ± 2.08	23.7	75.2	5.4	94.5	59.85	> 232	> 145	24 ± 3.46	> 213	44.8	21.1	4.5	9.8	63.34	
